Results published in patent publication US6623769B1, “Administration of lycopene for combating skin/mucous membrane damage” (Societe L'Oreal S.A., priority 1999, dated 2003).

Tested on: promoter of the gene for collagenase 1
Assay: Inhibition of PMA-induced activity of the collagenase 1 promoter (CAT reporter, CAT-Elisa) in transfected HeLa cells
Format: cell-based
Conditions: conclusion in words from the Table, PMA induction
Method: The activity of a lycopene-rich tomato extract (LycOMato® marketed by Metaphar) was studied on HeLa cells transfected with an expression vector encoding a portion of the promoter of collagenase cloned upstream of the gene for chloramphenicol acetyltransferase (CAT).
The study made it possible to evaluate the effectiveness of a product in inhibiting the induction of the transcription of the gene for collagenase by phorbol 12-myristate 13-acetate (PMA).
The test was carried out on HeLa cells (ATCC CCL2), into which had been introduced the promoter of the gene for collagenase 1 (3.8 kB) cloned upstream of the gene for chloramphenicol acetyltransferase (CAT).
The cells were exposed to PMA at a concentration of 10 nM for 24 hours.
Before administration of PMA, the cells were contacted for 2 hours with lycopene (LycOMato® marketed by Metaphar) at concentrations varying from 10^−7% to 10^−4%, representing lycopene concentrations ranging from 6×10^−9% to 6×10^−6%.
Assaying of the CAT was carried out using a “CAT-Elisa” kit marketed by Boehringer, according to the supplier's instructions.
A “base level” for the expression of the CAT was measured in cells which had neither received PMA nor were treated with the test product.
The results of the test, reported in the following Table, are expressed with respect to the base level (100%) as percentage of inhibition of the expression of the CAT gene.

For `CC(C)=CCC/C(C)=C/C=C/C(C)=C/C=C/C(C)=C/C=C/C=C(C)/C=C/C=C(C)/C=C/C=C(\C)CCC=C(C)C` [lycopene], the “effect on the synthesis of collagenase 1 by inhibition of the activity of its promoter” value was “inhibitory effect”.
